Reference: patent US20240343704A1, “HALO-SUBSTITUTED AMINO PYRIDINE COMPOUNDS AS INHIBITORS OF THE HAEMATOPOIETIC PROGENITOR KINASE 1 (HPK1)” (priority 2021, published 2024)

Columns and labels:
Lck (h) = Lck (h) (Homo sapiens, UniProt P06239); assay: Lck Human  Kinase Enzymatic Radiometric Assay; format: biochemical; settings: read-out: Lck IC50 nM Range*
Summary of the method: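 Substrate 33P-incorporation measured by scintillation counting after spotting on P30 filtermat and phosphoric acid washes. Human Lck reacted 40 min at RT in 50 mM Tris pH 7.5 with 10 mM MgAcetate, [gamma-33P]-ATP, 250 uM Cdc2 peptide, 0.1 mM EGTA and 0.1 mM Na3VO4.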

[1] = molecular target: T1, Recombinant (1-346) HPK1 (h) (Homo sapiens, UniProt Q92918); assay: HPK1 Human STE Kinase Enzymatic Radiometric Assay; format: biochemical; settings: read-out: HPK1 IC50 nM Range*
T1 construct: Recombinant (1-346) HPK1 (h) is incubated with 8 mM MOPS pH 7.0
T1 sequence (Q92918 1-346): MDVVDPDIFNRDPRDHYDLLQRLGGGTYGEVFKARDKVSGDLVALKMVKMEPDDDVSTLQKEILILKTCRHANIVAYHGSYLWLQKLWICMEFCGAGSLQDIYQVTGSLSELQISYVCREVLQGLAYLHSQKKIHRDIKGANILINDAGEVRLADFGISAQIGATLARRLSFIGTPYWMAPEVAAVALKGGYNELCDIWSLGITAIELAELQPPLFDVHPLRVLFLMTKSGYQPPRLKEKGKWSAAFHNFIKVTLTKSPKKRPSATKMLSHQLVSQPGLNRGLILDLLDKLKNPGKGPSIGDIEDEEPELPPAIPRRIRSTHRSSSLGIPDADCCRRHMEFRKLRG
Method: A stock solution of 10 mM of test compound is prepared in DMSO. The compound plate was prepared by 3-fold and 9-point serial dilutions. […] The reaction is initiated by The addition of the Mg/ATP mix. After incubation for 40 minutes at RT, the reaction is stopped by the addition of phosphoric acid to a concentration of 0.5%.

Chain of Lck (h) (P06239 whole entry): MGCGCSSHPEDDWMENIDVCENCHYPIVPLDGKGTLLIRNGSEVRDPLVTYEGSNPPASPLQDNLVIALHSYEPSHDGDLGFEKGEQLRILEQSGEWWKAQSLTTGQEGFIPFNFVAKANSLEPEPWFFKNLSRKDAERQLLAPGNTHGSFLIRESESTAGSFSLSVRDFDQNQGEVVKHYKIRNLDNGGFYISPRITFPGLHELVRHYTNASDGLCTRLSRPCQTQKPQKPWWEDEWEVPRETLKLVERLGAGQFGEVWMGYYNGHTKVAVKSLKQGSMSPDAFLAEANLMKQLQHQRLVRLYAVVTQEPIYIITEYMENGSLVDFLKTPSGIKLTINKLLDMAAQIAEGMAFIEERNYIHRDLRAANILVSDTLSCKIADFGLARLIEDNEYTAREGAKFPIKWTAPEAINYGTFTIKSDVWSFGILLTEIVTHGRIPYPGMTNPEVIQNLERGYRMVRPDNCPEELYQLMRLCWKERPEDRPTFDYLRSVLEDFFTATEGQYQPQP

| IC50 (Lck (h)) [nM] | IC50 [1] [nM] | Compound |
| --- | --- | --- |
| 11 to 100 | 101 to 1000 | COc1cc(-c2cc(-c3ccc(N4CCN(C(C)C)CC4)cc3)c(F)nc2N)cc2c1C(=O)NCC2 [I-354, 6-(2-amino-6-fluoro-5-(4-(4-isopropylpiperazin-1-yl)phenyl)pyridin-3-yl)-8-methoxy-3,4-dihydroisoquinolin-1(2H)-one] |
| > 1000 | 101 to 1000 | CC(C)N1CCN(c2ccc(-c3cc(-c4cc5c(c(N(C)C)c4)C(=O)NCC5)c(N)nc3F)cc2)CC1 [I-355, 6-(2-amino-6-fluoro-5-(4-(4-isopropylpiperazin-1-yl)phenyl)pyridin-3-yl)-8-(dimethylamino)-3,4-dihydroisoquinolin-1(2H)-one] |
| 101 to 1000 | 11 to 100 | CNc1cc(-c2cc(-c3ccc(N4CCN(C(C)C)CC4)cc3)c(F)nc2N)cc2c1C(=O)NCC2 [I-356, 6-(2-amino-6-fluoro-5-(4-(4-isopropylpiperazin-1-yl)phenyl)pyridin-3-yl)-8-(methylamino)-3,4-dihydroisoquinolin-1(2H)-one] |
| 101 to 1000 | 101 to 1000 | CC(C)N1CCN(c2ccc(-c3cc(-c4cc(N)c5c(c4)CCNC5=O)c(N)nc3F)cc2)CC1 [I-357, 8-amino-6-(2-amino-6-fluoro-5-(4-(4-isopropylpiperazin-1-yl)phenyl)pyridin-3-yl)-3,4-dihydroisoquinolin-1(2H)-one] |
| > 1000 | 0.1 to 10 | CC(C)N1CCN(c2ccc(-c3cc(-c4ccc5c(c4)OCCNC5=O)c(N)nc3F)cc2)CC1 [I-358, 8-(2-amino-6-fluoro-5-(4-(4-isopropylpiperazin-1-yl)phenyl)pyridin-3-yl)-3,4-dihydrobenzo[f][1,4]oxazepin-5(2H)-one] |
| > 1000 | 0.1 to 10 | Nc1nc(F)c(-c2ccc(N3CCS(=O)(=O)CC3)cc2)cc1-c1cc(F)c2c(c1)CCNC2=O [I-359, 6-(2-amino-5-(4-(1,1-dioxidothiomorpholino)phenyl)-6-fluoropyridin-3-yl)-8-fluoro-3,4-dihydroisoquinolin-1(2H)-one] |
| > 1000 | 0.1 to 10 | CC(C)N1CCN(c2ccc(-c3cc(-c4ccc5c(=O)[nH]cnc5c4)c(N)nc3F)cc2)CC1 [I-362, 7-(2-amino-6-fluoro-5-(4-(4-isopropylpiperazin-1-yl)phenyl)pyridin-3-yl)quinazolin-4(3H)-one] |
| > 1000 | 11 to 100 | CC(C)N1CCN(c2ccc(-c3cc(-c4ccc5c(=O)[nH]ncc5c4)c(N)nc3F)cc2)CC1 [I-363, 6-(2-amino-6-fluoro-5-(4-(4-isopropylpiperazin-1-yl)phenyl)pyridin-3-yl)phthalazin-1(2H)-one] |
| > 1000 | 0.1 to 10 | CC(C)N1CCN(c2ccc(-c3cc(-c4ccc5c(=O)[nH]ccc5c4)c(N)nc3F)cc2)CC1 [I-364, 6-(2-amino-6-fluoro-5-(4-(4-isopropylpiperazin-1-yl)phenyl)pyridin-3-yl)isoquinolin-1(2H)-one] |
| 101 to 1000 | 0.1 to 10 | Nc1nc(F)c(-c2ccc(C3CCOCC3)c([C@@H]3CCCN3)c2)cc1-c1ccc2c(c1)CCNC2=O [I-367, (S)-6-(2-amino-6-fluoro-5-(3-(pyrrolidin-2-yl)-4-(tetrahydro-2H-pyran-4-yl)phenyl)pyridin-3-yl)-3,4-dihydroisoquinolin-1(2H)-one] |
| 11 to 100 | 0.1 to 10 | Nc1nc(F)c(-c2ccc(C3CCOCC3)c([C@@H]3CCCN3)c2)cc1-c1cc2c(cc1F)C(=O)NCC2 [I-368, (S)-6-(2-amino-6-fluoro-5-(3-(pyrrolidin-2-yl)-4-(tetrahydro-2H-pyran-4-yl)phenyl)pyridin-3-yl)-7-fluoro-3,4-dihydroisoquinolin-1(2H)-one] |
| > 1000 | 0.1 to 10 | Nc1nc(F)c(-c2ccc(C3CCOCC3)c([C@@H]3CCCN3)c2)cc1-c1cc(F)c2c(c1)CCNC2=O [I-369, (S)-6-(2-amino-6-fluoro-5-(3-(pyrrolidin-2-yl)-4-(tetrahydro-2H-pyran-4-yl)phenyl)pyridin-3-yl)-8-fluoro-3,4-dihydroisoquinolin-1(2H)-one] |
| > 1000 | 0.1 to 10 | Nc1nc(F)c(-c2ccc(C3CCOCC3)c([C@@H]3CCCN3)c2)cc1-c1ccc2c(=O)[nH]ccc2c1 [I-370, (S)-6-(2-amino-6-fluoro-5-(3-(pyrrolidin-2-yl)-4-(tetrahydro-2H-pyran-4-yl)phenyl)pyridin-3-y)isoquinolin-1(2H)-one] |
| 101 to 1000 | 0.1 to 10 | CC(C)N1CCN(c2ccc(-c3cc(-c4cc(F)c5c(=O)[nH]ccc5c4)c(N)nc3F)cc2)CC1 [I-372, 6-(2-amino-6-fluoro-5-(4-(4-isopropylpiperazin-1-yl)phenyl)pyridin-3-yl)-8-fluoroisoquinolin-1(2H)-one] |
| 11 to 100 | 0.1 to 10 | CC(C)N1CCN(c2ccc(-c3cc(-c4cc5cc[nH]c(=O)c5cc4F)c(N)nc3F)cc2)CC1 [I-373, 6-(2-amino-6-fluoro-5-(4-(4-isopropylpiperazin-1-yl)phenyl)pyridin-3-yl)-7-fluoroisoquinolin-1(2H)-one] |
| > 1000 | 0.1 to 10 | Nc1nc(F)c(-c2ccc(N3CCN(CC4CC4)CC3)cc2)cc1-c1ccc2c(=O)[nH]ccc2c1 [I-374, 6-(2-amino-5-(4-(4-(cyclopropylmethyl)piper-azin-1-yl)phenyl)-6-fluoropyridin-3-yl)isoquinolin-1(2H)-one] |
| > 1000 | 0.1 to 10 | Nc1nc(F)c(-c2ccc(N3CCN(CC4CC4)CC3)cc2)cc1-c1cc(F)c2c(=O)[nH]ccc2c1 [I-375, 6-(2-amino-5-(4-(4-(cyclopropylmethyl)piper-azin-1-yl)phenyl)-6-fluoropyridin-3-yl)-8-fluoroisoquinolin-1(2H)-one] |
| > 1000 | 0.1 to 10 | Nc1nc(F)c(-c2ccc(N3CCN(CC4CC4)CC3)cc2)cc1-c1cc2cc[nH]c(=O)c2cc1F [I-376, 6-(2-amino-5-(4-(4-(cyclopropylmethyl)piper-azin-1-yl)phenyl)-6-fluoropyridin-3-yl)-7-fluoroisoquinolin-1(2H)-one] |
| 101 to 1000 | 0.1 to 10 | Cc1cc2cc(-c3cc(-c4ccc(N5CCN(C(C)C)CC5)cc4)c(F)nc3N)ccc2c(=O)[nH]1 [I-377, 6-(2-amino-6-fluoro-5-(4-(4-isoporpylpiperazin-1-yl)phenyl)pyridin-3-yl)-3-methylisoquinolin-1(2H)-one] |
| > 1000 | 0.1 to 10 | Cc1c[nH]c(=O)c2ccc(-c3cc(-c4ccc(N5CCN(C(C)C)CC5)cc4)c(F)nc3N)cc12 [I-378, 6-(2-amino-6-fluoro-5-(4-(4-isopropylpiperazin-1-yl)phenyl)pyridin-3-yl)-4-methylisoquinolin-1(2H)-one] |
| > 1000 | 0.1 to 10 | CC(C)N1CCN(c2ccc(-c3cc(-c4ccc5c(=O)[nH]cc(F)c5c4)c(N)nc3F)cc2)CC1 [I-379, 6-(2-amino-6-fluoro-5-(4-(4-isopropylpiperazin-1-yl)phenyl)pyridin-3-yl)-4-fluoroisoquinolin-1(2H)-one] |
| > 1000 | 0.1 to 10 | Cc1cc2cc(-c3cc(-c4ccc(N5CCN(C(C)C)CC5)cc4)c(F)nc3N)cc(F)c2c(=O)[nH]1 [I-380, 6-(2-amino-6-fluoro-5-(4-(4-isopropylpiperazin-1-yl)phenyl)pyridin-3-yl)-8-fluoro-3-methylisoquinolin-1(2H)-one] |
| > 1000 | 101 to 1000 | Cc1[nH]c(=O)c2ccc(-c3cc(-c4ccc(N5CCN(C(C)C)CC5)cc4)c(F)nc3N)cc2c1F [I-381, 6-(2-amino-6-fluoro-5-(4-(4-isopropylpiperazin-1-yl)phenyl)pyridin-3-yl)-4-fluoro-3-methylisoquinolin-1(2H)-one] |
| 101 to 1000 | 0.1 to 10 | Nc1nc(F)c(-c2ccc(N3CCN(CCC4CC4)CC3)cc2)cc1-c1cc(F)c2c(c1)CCNC2=O [I-384, 6-(2-amino-5-(4-(4-(2-cyclopropylethyl)piperazin-1-yl)phenyl)-6-fluoropyridin-3-yl)-8-fluoro-3,4-dihydroisoquinolin-1(2H)-one] |
| 0.1 to 10 | 0.1 to 10 | CC(C)N1CCN(c2ccc(-c3cc(-c4cc(F)c5c(c4)CCNC5=O)c(N)nc3F)cc2F)CC1 [I-386, 6-(2-amino-6-fluoro-5-(3-fluoro-4-(4-isopropylpiperazin-1-yl)phenyl)pyridin-3-yl)-8-fluoro-3,4-dihydroisoquinolin-1(2H)-one] |
| > 1000 | 0.1 to 10 | Nc1nc(F)c(-c2ccc(N3CCN(CCC4CC4)CC3)cc2)cc1-c1ccc2c(=O)[nH]ccc2c1 [I-389, 6-(2-amino-5-(4-(4-(2-cyclopropylethyl)piperazin-1-yl)phenyl)-6-fluoropyridin-3-yl)isoquinolin-1(2H)-one] |
| 101 to 1000 | 0.1 to 10 | C[C@H](C1CC1)N1CCN(c2ccc(-c3cc(-c4cc(F)c5c(c4)CCNC5=O)c(N)nc3F)cc2)CC1 [I-390, (R)-6-(2-amino-5-(4-(4-(1-cyclopropylethyl)piperazin-1-yl)phenyl)-6-fluoropyridin-3-yl)-8-fluoro-3,4-dihydroisoquinolin-1(2H)-one] |
